pIC50: −log10 of the molar value.
What was measured:
[1] = biological target: T1, enzyme FAAH (Fatty Acid Amide Hydrolase) (Mus musculus, UniProt O08914); experiment: FAAH fluorescent enzymatic test, hydrolysis of AAMC (Protocol 2); assay type: biochemical; settings: mouse brain homogenate, AAMC 10 μM, preincubation 20 min at 25° C.
T1 construct: The membrane homogenates are prepared extemporaneously by homogenizing the tissues; from tissue; host or cells: mouse brain (minus the cerebellum), membrane homogenate
T1 sequence (O08914 1-579): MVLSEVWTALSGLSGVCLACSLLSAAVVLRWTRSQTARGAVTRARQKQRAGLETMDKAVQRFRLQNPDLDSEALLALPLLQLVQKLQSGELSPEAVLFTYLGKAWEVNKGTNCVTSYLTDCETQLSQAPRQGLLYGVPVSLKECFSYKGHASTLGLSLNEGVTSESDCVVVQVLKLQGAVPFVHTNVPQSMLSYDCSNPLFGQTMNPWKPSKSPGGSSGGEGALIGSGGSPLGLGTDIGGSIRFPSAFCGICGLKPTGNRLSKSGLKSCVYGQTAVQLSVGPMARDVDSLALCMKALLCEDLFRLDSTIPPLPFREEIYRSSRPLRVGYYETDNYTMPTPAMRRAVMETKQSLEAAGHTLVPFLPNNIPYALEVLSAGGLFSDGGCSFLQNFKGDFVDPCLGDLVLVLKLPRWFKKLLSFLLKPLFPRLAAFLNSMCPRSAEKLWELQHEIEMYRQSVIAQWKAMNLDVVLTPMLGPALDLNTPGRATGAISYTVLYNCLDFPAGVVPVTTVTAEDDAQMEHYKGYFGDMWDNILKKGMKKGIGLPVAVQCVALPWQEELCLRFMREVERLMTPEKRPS
Description: Thus, mouse brains (minus the cerebellum) are withdrawn and stored at −80° C. The brain homogenates are prepared extemporaneously by homogenizing the tissues using a Precellys® machine in reaction buffer (10 mM Tris-HCl, pH=8, 150 mM NaCl and 1 mM ethylenediaminetetraacetic acid (EDTA)). The enzymatic reaction is performed in black polystyrene 384-well plates in a final volume of 50 μL. Reaction buffer supplemented with fatty acid-free bovine serum albumin (BSA, 1 mg/ml) is used for the enzymatic reaction, the dilution of the compounds and the dilution of the AAMC. Reaction buffer containing the BSA (25 μL/well), the diluted test compounds at different concentrations (5 μL/well containing 1% DMSO) and the membrane preparation (10 μL/well, i.e. 200 μg of tissue per test) are successively added to the wells. After preincubation for 20 minutes of the compounds with the enzyme at 25° C., the reaction is started by adding 10 μL of substrate per well (AAMC, final concentration of 10 μM). After incubation for 40 minutes, the aminomethyl coumarin (AMC) produced is measured by fluorescent counting (Envision plate reader).

CNC(=O)c1cc(COC(=O)NCCC2CCN(c3ccc(-c4ccc(F)cc4)cc3)CC2)on1 [Compound 29, 3-methylcarbamoylisoxazol-5-ylmethyl 2-[1-(4′-fluorobiphenyl-4-yl)piperidin-4-yl]ethylcarbamate]
pIC50 [1]: 9.15 | melting point: 212 to 215 °C

— patent US8716289B2, “Carbamate derivatives of alkyl-heterocycles, preparation thereof and therapeutic use thereof” (Sanofi, priority 2008, dated 2014)
